Assay results published in PubChem BioAssay AID1259407 (Chemical Carcinogenesis Research Information System (CCRIS), 2018).
Activity calls are given as the source filed them. The rule behind the calls is not given here.

Tested on: CCRIS mutagenicity, Ames/micronucleus/aberration tests
Assay: CCRIS mutagenicity studies
[1] = Test System: AMES SALMONELLA TYPHIMURIUM, Strain/Indicator: TA98, Metabolic Activation: NONE, Method: STANDARD PLATE
[2] = Test System: AMES SALMONELLA TYPHIMURIUM, Strain/Indicator: TA98, Metabolic Activation: RAT, LIVER, S-9, AROCLOR 1254, Method: STANDARD PLATE
[3] = Test System: AMES SALMONELLA TYPHIMURIUM, Strain/Indicator: TA100, Metabolic Activation: NONE, Method: STANDARD PLATE
[4] = Test System: AMES SALMONELLA TYPHIMURIUM, Strain/Indicator: TA100, Metabolic Activation: RAT, LIVER, S-9, AROCLOR 1254, Method: STANDARD PLATE
[5] = Test System: AMES SALMONELLA TYPHIMURIUM, Strain/Indicator: TA98, Metabolic Activation: NONE, Method: PREINCUBATION
[6] = Test System: AMES SALMONELLA TYPHIMURIUM, Strain/Indicator: TA100, Metabolic Activation: NONE, Method: PREINCUBATION
[7] = Test System: AMES SALMONELLA TYPHIMURIUM, Strain/Indicator: TA1535, Metabolic Activation: NONE, Method: PREINCUBATION

## O=[N+]([O-])c1ccc2c3cccc4cccc(c5c([N+](=O)[O-])ccc1c25)c43
Test System: AMES SALMONELLA TYPHIMURIUM, Strain/Indicator: TA98(1,8-DNP6), Metabolic Activation: NONE, Method: STANDARD PLATE
  mutagenic call: active; positive
Test System: AMES SALMONELLA TYPHIMURIUM, Strain/Indicator: TA98(NR), Metabolic Activation: NONE, Method: STANDARD PLATE
  mutagenic call: active; positive
[1]
  mutagenic call: active; positive
Test System: AMES SALMONELLA TYPHIMURIUM, Strain/Indicator: TA98, Metabolic Activation: NONE, Method: STANDARD PLATE (ANAEROBIC)
  mutagenic call: active; positive
[2]
  mutagenic call: active; positive
[3]
  mutagenic call: inactive; negative
[4]
  mutagenic call: active; positive

## Fc1cnc2ccc3ccccc3c2c1
Test System: AMES SALMONELLA TYPHIMURIUM, Strain/Indicator: TA100, Metabolic Activation: RAT, LIVER, S-9, PHENOBARBITAL AND 5,6-BENZOFLAVONE, Method: PREINCUBATION
  mutagenic call: active; positive

## ClCCCl
Test System: AMES SALMONELLA TYPHIMURIUM, Strain/Indicator: TA97, Metabolic Activation: HAMSTER, LIVER, S-9, AROCLOR 1254 (10%), Method: PREINCUBATION
  mutagenic call: inactive; negative
Test System: AMES SALMONELLA TYPHIMURIUM, Strain/Indicator: TA97, Metabolic Activation: NONE, Method: PREINCUBATION
  mutagenic call: inactive; negative
Test System: AMES SALMONELLA TYPHIMURIUM, Strain/Indicator: TA97, Metabolic Activation: NONE, Method: STANDARD PLATE
  mutagenic call: inactive; negative
Test System: AMES SALMONELLA TYPHIMURIUM, Strain/Indicator: TA97, Metabolic Activation: RAT, LIVER, S-9, AROCLOR 1254 (10%), Method: PREINCUBATION
  mutagenic call: inactive; negative
Test System: AMES SALMONELLA TYPHIMURIUM, Strain/Indicator: TA97, Metabolic Activation: RAT, LIVER, S-9, AROCLOR 1254, Method: STANDARD PLATE
  mutagenic call: active; positive
Test System: AMES SALMONELLA TYPHIMURIUM, Strain/Indicator: TA98, Metabolic Activation: HAMSTER, LIVER, S-9, AROCLOR 1254 (10%), Method: PREINCUBATION
  mutagenic call: inactive; negative
[5]
  mutagenic call: inactive; negative
[1]
  mutagenic call: inactive; negative
Test System: AMES SALMONELLA TYPHIMURIUM, Strain/Indicator: TA98, Metabolic Activation: RAT, LIVER, S-9, AROCLOR 1254 (10%), Method: PREINCUBATION
  mutagenic call: inactive; negative
[2]
  mutagenic call: active; positive
Test System: AMES SALMONELLA TYPHIMURIUM, Strain/Indicator: TA100, Metabolic Activation: HAMSTER, LIVER, S-9, AROCLOR 1254 (10%), Method: PREINCUBATION
  mutagenic call: inactive; negative
[6]
  mutagenic call: inactive; negative
[3]
  mutagenic call: active; positive
Test System: AMES SALMONELLA TYPHIMURIUM, Strain/Indicator: TA100, Metabolic Activation: RAT, LIVER, S-9, AROCLOR 1254 (10%), Method: PREINCUBATION
  mutagenic call: inactive; negative
[4]
  mutagenic call: active; positive
Test System: AMES SALMONELLA TYPHIMURIUM, Strain/Indicator: TA104, Metabolic Activation: NONE, Method: STANDARD PLATE
  mutagenic call: inactive; negative
Test System: AMES SALMONELLA TYPHIMURIUM, Strain/Indicator: TA104, Metabolic Activation: RAT, LIVER, S-9, AROCLOR 1254, Method: STANDARD PLATE
  mutagenic call: active; positive
Test System: AMES SALMONELLA TYPHIMURIUM, Strain/Indicator: TA1530, Metabolic Activation: NONE, Method: SPOT
  mutagenic call: active; positive
Test System: AMES SALMONELLA TYPHIMURIUM, Strain/Indicator: TA1535, Metabolic Activation: HAMSTER, LIVER, S-9, AROCLOR 1254 (10%), Method: PREINCUBATION
  mutagenic call: active; positive
[7]
  mutagenic call: inactive; negative
Test System: AMES SALMONELLA TYPHIMURIUM, Strain/Indicator: TA1535, Metabolic Activation: NONE, Method: SPOT
  mutagenic call: active; positive
Test System: AMES SALMONELLA TYPHIMURIUM, Strain/Indicator: TA1535, Metabolic Activation: NONE, Method: STANDARD PLATE
  mutagenic call: inactive; negative
Test System: AMES SALMONELLA TYPHIMURIUM, Strain/Indicator: TA1535, Metabolic Activation: RAT, LIVER, S-9, AROCLOR 1254 (10%), Method: PREINCUBATION
  mutagenic call: active; positive
Test System: AMES SALMONELLA TYPHIMURIUM, Strain/Indicator: TA1535, Metabolic Activation: RAT, LIVER, S-9, Method: STANDARD PLATE
  mutagenic call: active; positive
Test System: AMES SALMONELLA TYPHIMURIUM, Strain/Indicator: TA1535, Metabolic Activation: S-9 MIX, Method: STANDARD PLATE
  mutagenic call: active; positive
Test System: Ames Salmonella typhimurium, Strain/Indicator: TA98, Metabolic Activation: None, Method: Preincubation
  mutagenic call: inactive; negative
Test System: Ames Salmonella typhimurium, Strain/Indicator: TA98, Metabolic Activation: Rat, Liver, S9, Sodium phenobarbital and 5,6-benzoflavone (10%), Method: Preincubation
  mutagenic call: inactive; negative
Test System: Ames Salmonella typhimurium, Strain/Indicator: TA100, Metabolic Activation: None, Method: Preincubation
  mutagenic call: inactive; negative
Test System: Ames Salmonella typhimurium, Strain/Indicator: TA100, Metabolic Activation: Rat, Liver, S9, Sodium phenobarbital and 5,6-benzoflavone (10%), Method: Preincubation
  mutagenic call: inactive; negative
Test System: Ames Salmonella typhimurium, Strain/Indicator: TA1535, Metabolic Activation: Rat, Liver, S9, Sodium phenobarbital and 5,6-benzoflavone (10%), Method: Preincubation
  mutagenic call: active; positive
Test System: Ames Salmonella typhimurium, Strain/Indicator: TA1537, Metabolic Activation: None, Method: Preincubation
  mutagenic call: inactive; negative
Test System: Ames Salmonella typhimurium, Strain/Indicator: TA1537, Metabolic Activation: Rat, Liver, S9, Sodium phenobarbital and 5,6-benzoflavone (10%), Method: Preincubation
  mutagenic call: inactive; negative
Test System: E. coli, Strain/Indicator: WP2uvrA/pKM101, Metabolic Activation: None, Method: Preincubation
  mutagenic call: inactive; negative
Test System: E. coli, Strain/Indicator: WP2uvrA/pKM101, Metabolic Activation: Rat, Liver, S9, Sodium phenobarbital and 5,6-benzoflavone (10%), Method: Preincubation
  mutagenic call: inactive; negative

## O=S(O)CO
[5]
  mutagenic call: inactive; negative
Test System: AMES SALMONELLA TYPHIMURIUM, Strain/Indicator: TA98, Metabolic Activation: RAT LIVER S-9, PHENOBARBITAL AND BETA-NAPHTHOFLAVONE, Method: PREINCUBATION
  mutagenic call: inactive; negative
[6]
  mutagenic call: inactive; negative
Test System: AMES SALMONELLA TYPHIMURIUM, Strain/Indicator: TA100, Metabolic Activation: RAT LIVER S-9, PHENOBARBITAL AND BETA-NAPHTHOFLAVONE, Method: PREINCUBATION
  mutagenic call: inactive; negative
Test System: AMES SALMONELLA TYPHIMURIUM, Strain/Indicator: TA102, Metabolic Activation: NONE, Method: PREINCUBATION
  mutagenic call: inactive; negative
Test System: AMES SALMONELLA TYPHIMURIUM, Strain/Indicator: TA102, Metabolic Activation: RAT LIVER S-9, PHENOBARBITAL AND BETA-NAPHTHOFLAVONE, Method: PREINCUBATION
  mutagenic call: inactive; negative
Test System: AMES SALMONELLA TYPHIMURIUM, Strain/Indicator: TA104, Metabolic Activation: NONE, Method: PREINCUBATION
  mutagenic call: inactive; negative
Test System: AMES SALMONELLA TYPHIMURIUM, Strain/Indicator: TA104, Metabolic Activation: RAT LIVER S-9, PHENOBARBITAL AND BETA-NAPHTHOFLAVONE, Method: PREINCUBATION
  mutagenic call: inactive; negative
[7]
  mutagenic call: inactive; negative
Test System: AMES SALMONELLA TYPHIMURIUM, Strain/Indicator: TA1535, Metabolic Activation: RAT LIVER S-9, PHENOBARBITAL AND BETA-NAPHTHOFLAVONE, Method: PREINCUBATION
  mutagenic call: inactive; negative
Test System: AMES SALMONELLA TYPHIMURIUM, Strain/Indicator: TA1537, Metabolic Activation: NONE, Method: PREINCUBATION
  mutagenic call: inactive; negative
Test System: AMES SALMONELLA TYPHIMURIUM, Strain/Indicator: TA1537, Metabolic Activation: RAT LIVER S-9, PHENOBARBITAL AND BETA-NAPHTHOFLAVONE, Method: PREINCUBATION
  mutagenic call: inactive; negative
Test System: E.COLI, Strain/Indicator: WP2UVRA/PKM101, Metabolic Activation: NONE, Method: PREINCUBATION
  mutagenic call: inactive; negative
Test System: E.COLI, Strain/Indicator: WP2UVRA/PKM101, Metabolic Activation: RAT LIVER S-9, PHENOBARBITAL AND BETA-NAPHTHOFLAVONE, Method: PREINCUBATION
  mutagenic call: inactive; negative
Test System: E.COLI, Strain/Indicator: WP2UVRA, Metabolic Activation: NONE, Method: PREINCUBATION
  mutagenic call: inactive; negative
Test System: E.COLI, Strain/Indicator: WP2UVRA, Metabolic Activation: RAT LIVER S-9, PHENOBARBITAL AND BETA-NAPHTHOFLAVONE, Method: PREINCUBATION
  mutagenic call: inactive; negative
